For 28 compounds, chromatographic logD and Drug uptake results are on record in ChEMBL document CHEMBL4265872, “Around the macrolide - Impact of 3D structure of macrocycles on lipophilicity and cellular accumulation” (Eur J Med Chem, 2017).

What is called chromatographic logD is a lipophilicity value derived from retention on a column. A lower chromatographic logD goes with lower lipophilicity.

A short description of series [1]: Chromatographic hydrophobicity, logD of the compound at pH 7.4 by fast-gradient RP-HPLC method. Type of series: physicochemical. To be noted: buffer.
A short description of series [2]: Drug accumulation in human NCI-H292 cells at 3 to 10 uM incubated for 3 hrs by LC-MS analysis relative to azithromycin. As to conditions: nci-h292, 3 h. The format is ADME, cell-based.

For the compound `CC[C@H]1OC(=O)[C@H](C)[C@@H](OCCCNC(=O)C2CCC2)[C@H](C)[C@@H](O[C@@H]2O[C@H](C)C[C@H](N(C)C)[C@H]2O)[C@](C)(O)C[C@@H](C)CN(C)[C@H](C)[C@@H](O)[C@]1(C)O`, in series [1], the chromatographic logD stood at 1.78. Moreover, the Drug uptake in series [2] came out at 21%.
`CCCCCCCC(=O)NCCCN1C[C@H](C)C[C@@](C)(O)[C@H](O[C@@H]2O[C@H](C)C[C@H](N(C)C)[C@H]2O)[C@@H](C)[C@H](O[C@H]2C[C@@](C)(OC)[C@@H](O)[C@H](C)O2)[C@@H](C)C(=O)O[C@H](CC)[C@@](C)(O)[C@H](O)[C@H]1C`: in series [1], the chromatographic logD worked out at 3.74. The compound further had a Drug uptake in series [2] of 207%.
For `CCCCCCCC(=O)NCCCN1C[C@H](C)C[C@@](C)(O)[C@H](O[C@@H]2O[C@H](C)C[C@H](N(C)C)[C@H]2O)[C@@H](C)[C@H](O)[C@@H](C)C(=O)O[C@H](CC)[C@@](C)(O)[C@H](O)[C@H]1C` the same measures were 3.08 and 80%.
In turn, `CCCCCCCC(=O)NCCCN(C)[C@H]1C[C@@H](C)O[C@@H](O[C@@H]2[C@@H](C)[C@H](O[C@H]3C[C@@](C)(OC)[C@@H](O)[C@H](C)O3)[C@@H](C)C(=O)O[C@H](CC)[C@@](C)(O)[C@H](O)[C@@H](C)C(=O)[C@H](C)C[C@@]2(C)OC)[C@@H]1O` came in with a chromatographic logD in series [1] of 6.44. In series [2], this compound displayed a Drug uptake of 363%.
With `CC[C@H]1OC(=O)[C@H](C)[C@@H](O[C@H]2C[C@@](C)(OC)[C@@H](O)[C@H](C)O2)[C@H](C)[C@@H](O[C@@H]2O[C@H](C)C[C@H](N(C)CCCNC(C)=O)[C@H]2O)[C@](C)(OC)C[C@@H](C)C(=O)[C@H](C)[C@@H](O)[C@]1(C)O`, the chromatographic logD in series [1] came to 3.08. The Drug uptake in series [2] amounted to 27%.
In the same order, the values of `CC[C@H]1OC(=O)[C@H](C)[C@@H](O[C@H]2C[C@@](C)(OC)[C@@H](O)[C@H](C)O2)[C@H](C)[C@@H](O[C@@H]2O[C@H](C)C[C@H](N(C)CCCNC(C)=O)[C@H]2O)[C@](C)(O)C[C@@H](C)CN(C)[C@H](C)[C@@H](O)[C@]1(C)O` are 2.06 and 5%.
Turning to `CC[C@H]1OC(=O)[C@H](C)[C@@H](O)[C@H](C)[C@@H](O[C@@H]2O[C@H](C)C[C@H](N(C)C)[C@H]2O)[C@](C)(OC)C[C@@H](C)/C(=N\O)[C@H](C)[C@@H](O)[C@]1(C)O`, in series [1], the chromatographic logD is 2.31. Besides, the Drug uptake in series [2] amounted to 17%.
On to `CC[C@H]1OC(=O)[C@H](C)[C@@H](O[C@H]2C[C@@](C)(OC)[C@@H](O)[C@H](C)O2)[C@H](C)[C@@H](O[C@@H]2O[C@H](C)C[C@H](N(C)C)[C@H]2O)[C@](C)(O)C[C@@H](C)CN(C)[C@H](C)[C@@H](OCCCNC(=O)C2CCC2)[C@]1(C)O`, for which the chromatographic logD in series [1] is 3.5. For the same compound, in series [2], the Drug uptake was found to be 138%.
Take `CC[C@H]1OC(=O)[C@H](C)[C@@H](O)[C@H](C)[C@@H](O)[C@](C)(O)C[C@@H](C)CN(C)[C@H](C)[C@@H](O)[C@]1(C)O` [AZITHROMYCIN AGLYCONE]: the chromatographic logD in series [1] is 1.29. The compound also displayed a Drug uptake in series [2] of 13%.
For `CC[C@H]1OC(=O)[C@H](C)[C@@H](O[C@H]2C[C@@](C)(OC)[C@@H](O)[C@H](C)O2)[C@H](C)[C@@H](O[C@@H]2O[C@H](C)C[C@H](N(C)C)[C@H]2O)[C@](C)(OC)C[C@@H](C)C(=O)N[C@H](C)[C@@H](O)[C@]1(C)O` the same measures were 2.41 and 10%.
As for `CC[C@H]1OC(=O)[C@H](C)[C@@H](O[C@H]2C[C@@](C)(OC)[C@@H](OCCCNC(=O)c3c(C)nn(C)c3Cl)[C@H](C)O2)[C@H](C)[C@@H](O[C@@H]2O[C@H](C)C[C@H](N(C)C)[C@H]2O)[C@](C)(O)C[C@@H](C)CN(C)[C@H](C)[C@@H](O)[C@]1(C)O`, the chromatographic logD in series [1] turned out to be 2.52. The compound also had a Drug uptake in series [2] of 60%.
As for `CC[C@H]1OC(=O)[C@H](C)[C@@H](O[C@H]2C[C@@](C)(OC)[C@@H](OCCCNC(=O)COC)[C@H](C)O2)[C@H](C)[C@@H](O[C@@H]2O[C@H](C)C[C@H](N(C)C)[C@H]2O)[C@](C)(O)C[C@@H](C)CN(C)[C@H](C)[C@@H](O)[C@]1(C)O`, the chromatographic logD in series [1] was 2.16. The same compound had a Drug uptake in series [2] of 9%.
Turning to `CC[C@H]1OC(=O)[C@H](C)[C@@H](O[C@H]2C[C@@](C)(OC)[C@@H](O)[C@H](C)O2)[C@H](C)[C@@H](O[C@@H]2O[C@H](C)C[C@H](N(C)C)[C@H]2O)[C@](C)(O)C[C@@H](C)CN(C)[C@H](C)[C@@H](OCCCNC(=O)COC)[C@]1(C)O`, in series [1], the chromatographic logD was 2.58. The compound further displayed a Drug uptake in series [2] of 26%.
In turn, `CCCCCCCC(=O)NCCCN(C)[C@H]1C[C@@H](C)O[C@@H](O[C@@H]2[C@@H](C)[C@H](O[C@H]3C[C@@](C)(OC)[C@@H](O)[C@H](C)O3)[C@@H](C)C(=O)O[C@H](CC)[C@@](C)(O)[C@H](O)[C@@H](C)N(C)C[C@H](C)C[C@@]2(C)O)[C@@H]1O` yielded a chromatographic logD in series [1] of 3.74. In series [2], this compound had a Drug uptake of 457%.
In series [1], `CC[C@H]1OC(=O)[C@H](C)[C@@H](O[C@H]2C[C@@](C)(OC)[C@@H](O)[C@H](C)O2)[C@H](C)[C@@H](O[C@@H]2O[C@H](C)C[C@H](N(C)C)[C@H]2O)[C@](C)(O)C[C@@H](C)CN(CCCNC(C)=O)[C@H](C)[C@@H](O)[C@]1(C)O` had a chromatographic logD of 2.06. The compound further displayed a Drug uptake in series [2] of 1%.
Regarding `CC[C@H]1OC(=O)[C@H](C)[C@@H](O[C@H]2C[C@@](C)(OC)[C@@H](O)[C@H](C)O2)[C@H](C)[C@@H](O[C@@H]2O[C@H](C)C[C@H](N(C)C)[C@H]2OCCCNC(=O)C2CCC2)[C@](C)(O)C[C@@H](C)CN(C)[C@H](C)[C@@H](O)[C@]1(C)O`, the chromatographic logD in series [1] is 3.16. The compound further showed a Drug uptake in series [2] of 124%.
Turning to `CC[C@H]1OC(=O)[C@H](C)[C@@H](O)[C@H](C)[C@@H](O[C@@H]2O[C@H](C)C[C@H](N(C)C)[C@H]2O)[C@](C)(O)C[C@@H](C)CN(C)[C@H](C)[C@@H](O)[C@]1(C)O` [DESCLADINOSYL AZITHROMYCIN], the chromatographic logD in series [1] is 1.35. The Drug uptake in series [2] was found to be 56%.
Regarding `CC[C@H]1OC(=O)[C@H](C)[C@@H](O[C@H]2C[C@@](C)(OC)[C@@H](O)[C@H](C)O2)[C@H](C)[C@@H](O[C@@H]2O[C@H](C)C[C@H](N(C)C)[C@H]2OCCCNC(=O)COC)[C@](C)(O)C[C@@H](C)CN(C)[C@H](C)[C@@H](O)[C@]1(C)O`, the chromatographic logD in series [1] was 2.54. For the same compound, the Drug uptake in series [2] was 22%.
The compound `CC[C@H]1OC(=O)[C@H](C)[C@@H](O[C@H]2C[C@@](C)(OC)[C@@H](OC(=O)CN(CC)CC)[C@H](C)O2)[C@H](C)[C@@H](O[C@@H]2O[C@H](C)C[C@H](N(C)C)[C@H]2O)[C@](C)(OC)C[C@@H](C)C(=O)N[C@H](C)[C@@H](O)[C@]1(C)O` returned a chromatographic logD in series [1] of 3.86. Further, the Drug uptake in series [2] stood at 121%.
Compound `CCCCCCCC(=O)NCCCO[C@@H]1[C@@H](C)C(=O)[C@H](C)C[C@@](C)(OC)[C@H](O[C@@H]2O[C@H](C)C[C@H](N(C)C)[C@H]2O)[C@@H](C)[C@H](O[C@H]2C[C@@](C)(OC)[C@@H](O)[C@H](C)O2)[C@@H](C)C(=O)O[C@H](CC)[C@@]1(C)O` displayed a chromatographic logD in series [1] of 5.07. In series [2], this compound registered a Drug uptake of 575%.
In series [1], `CC[C@H]1OC(=O)[C@H](C)[C@@H](O[C@H]2C[C@@](C)(OC)[C@@H](O)[C@H](C)O2)[C@H](C)[C@@H](O[C@@H]2O[C@H](C)C[C@H](N(C)C)[C@H]2O)[C@](C)(OC)C[C@@H](C)/C(=N\O)[C@H](C)[C@@H](O)[C@]1(C)O` displayed a chromatographic logD of 3.61. The Drug uptake in series [2] is given as 48%.
`CC[C@H]1OC(=O)[C@H](C)[C@@H](OCCCNC(=O)COC)[C@H](C)[C@@H](O[C@@H]2O[C@H](C)C[C@H](N(C)C)[C@H]2O)[C@](C)(O)C[C@@H](C)CN(C)[C@H](C)[C@@H](O)[C@]1(C)O` registered a chromatographic logD in series [1] of 1.4. In series [2], this compound returned a Drug uptake of 14%.
In the same order, the values of `CCCCC(=O)NCCCN(C)[C@H]1C[C@@H](C)O[C@@H](O[C@@H]2[C@@H](C)[C@H](O[C@H]3C[C@@](C)(OC)[C@@H](O)[C@H](C)O3)[C@@H](C)C(=O)O[C@H](CC)[C@@](C)(O)[C@H](O)[C@@H](C)N(C)C[C@H](C)C[C@@]2(C)O)[C@@H]1O` are 3.08 and 75%.
The compound `CC[C@H]1OC(=O)[C@H](C)[C@@H](O[C@H]2C[C@@](C)(OC)[C@@H](OCCCNC(C)=O)[C@H](C)O2)[C@H](C)[C@@H](O[C@@H]2O[C@H](C)C[C@H](N(C)C)[C@H]2O)[C@](C)(OC)C[C@@H](C)C(=O)[C@H](C)[C@@H](O)[C@]1(C)O` showed a chromatographic logD in series [1] of 3.08. Besides, the Drug uptake in series [2] is given as 30%.
For `CCCCC(=O)NCCCO[C@@H]1[C@@H](C)N(C)C[C@H](C)C[C@@](C)(O)[C@H](O[C@@H]2O[C@H](C)C[C@H](N(C)C)[C@H]2O)[C@@H](C)[C@H](O[C@H]2C[C@@](C)(OC)[C@@H](O)[C@H](C)O2)[C@@H](C)C(=O)O[C@H](CC)[C@@]1(C)O` the same measures were 3.74 and 756%.
Turning to `CCCCCCCC(=O)NCCCN(C)[C@H]1C[C@@H](C)O[C@@H](O[C@@H]2[C@@H](C)[C@H](O)[C@@H](C)C(=O)O[C@H](CC)[C@@](C)(O)[C@H](O)[C@@H](C)N(C)C[C@H](C)C[C@@]2(C)O)[C@@H]1O`, in series [1], the chromatographic logD is 4.84. This compound returned a Drug uptake in series [2] of 226%.
Regarding `CC[C@H]1OC(=O)[C@H](C)[C@@H](O[C@H]2C[C@@](C)(OC)[C@@H](O)[C@H](C)O2)[C@H](C)[C@@H](O[C@@H]2O[C@H](C)C[C@H](N(C)C)[C@H]2O)[C@](C)(O)C[C@@H](C)CN(C)[C@H](C)[C@@H](OCCCNC(C)=O)[C@]1(C)O`, the chromatographic logD in series [1] was 2.41. In series [2], this compound registered a Drug uptake of 7%.
Regarding `CC[C@H]1OC(=O)[C@H](C)[C@@H](O[C@H]2C[C@@](C)(OC)[C@@H](O)[C@H](C)O2)[C@H](C)[C@@H](O[C@@H]2O[C@H](C)C[C@H](N(C)C)[C@H]2O)[C@](C)(OC)C[C@@H](C)C(=O)[C@H](C)[C@@H](OCCCNC(C)=O)[C@]1(C)O`, the chromatographic logD in series [1] was 2.72. In series [2], this compound came in with a Drug uptake of 11%.
